Data: patent publication US7407645B2, “Bioconjugates of metal complexes of nitrogen-containing macrocyclic ligands” (Metaphore Pharmaceuticals, Inc., priority 1995, dated 2008)

Test: Relaxivity R1 from proton relaxation times (T1), inversion-recovery, 20 MHz
Format: physicochemical
Set-up: unit not given here
Details: 100 mM Hepes buffer, pH=7.4, 40° C., slope of 1/T1 versus concentration
Experimental: Relaxivity measurements of the complex of Example 1 was determined.
Proton relaxation times (T1) of the sample in 100 mM Hepes buffer, pH=7.4, at 40° C. were determined from a monoexponential curve fit obtained from inversion-recovery pulse sequences (180°-τ-90°) with a Bruker PC 120/125/10 VTs NMR process analyzer. The spectrometer was calibrated for each sample to assure accurate duration of 90° and 180° radio frequency pulses and appropriate magnetic field strength to match the 20 MHz system operating frequency. The relaxivity (R1) was obtained from the slope of a plot of 1/T1 versus the concentration of paramagnetic compound.

Substance: [Manganese (II) dichloro 2,3-(R,R)-Cyclohexano-6-(S)-{3-(lithocholylamino)-propyl}-1,4,7,10,13-penta-azacclopentadecane] [Example 1]
- relaxivity R1: 6.09
